Where two headings read alike, the source gives them in different places.
Columns and labels:
Assay type in all cases: cell-based
[1] = molecular target: T1, human Nav1.5 (pulse 1, tonic inhibition) (Homo sapiens, UniProt Q14524); test: Two pulse assay protocol, Nav1.5; details: HEK293 cells stably expressing human Nav1.5, pH 7.3, peak current, pulse 1 (tonic), read-out: percent inhibition hNav1.5, Pulse 1 (5 uM)
T1 construct: host or cells: HEK293
Description: (§1) In vitro Na+ Current Inhibition Assays were performed by Eurofins Discovery (St Charles, MO). All compound functional activity determinations were determined through electrophysiological analyses of Na+ currents in HEK293 cells expressing a stably transfected Na+ channel (human Nav1.1, 1.2, 1.3, 1.5, 1.6, 1.7, or 1.8). After harvesting with Accutase cells are maintained in serum free medium at room temperature prior to electrophysiological recording utilizing the QPatch HT automated whole-cell patch-clamp platform (Sophion Bioscience, Woburn MA). Stock solution aliquots of the test compound are prepared in DMSO at 300× the final assay concentrations, and stored at −20° C. until the day of assay. On the day of the assay, an aliquot of the stock solution is thawed and diluted into external solution (137 mM NaCl, 4 mM KCl, 1 mM MgCl2, 1.8 mM CaCl2, 10 mM HEPES, 10 mM Glucose (pH 7.3, titrated with 10M NaOH) to make final test concentrations. A final concentration of 0.33% DMSO is maintained for each concentration of the assay compounds. Internal solution for recordings of Na+ consist consists of 100 mM CsF, 45 mM CsCl, 5 mM NaCl, 10 mM HEPES, 5 mM EGTA (pH 7.3, titrated with 1M CsOH).
(§2) Two pulse assay protocol for human Nav1.1, 1.2, 1.3, 1.5, 1.6, 1.7, and 1.8 channels. Mammalian cultured cells expressing the indicated human Nav1.1, 1.2, 1.3, 1.5, 1.6, 1.7 or 1.8 channels were assayed using the The QPatch HT (Sophion Bioscience, Woburn MA) automated system with an intracellular solution (mM) of 100 CsF, 45 CsCl, 5 NaCl, 10 HEPES, 5 EGTA (pH 7.3, titrated with 1M CsOH) and extracellular solution (mM) of 137 NaCl, 4 KCl, 1 MgCl2, 1.8 CaCl2, 10 HEPES, 10 Glucose (pH 7.3, titrated with 10M NaOH). Onset and steady state block of the sodium channel was measured using a pulse pattern, repeated every 20 seconds (s) from a holding potential of −120 mV for 100 ms, and then pulsed to 0 mV for 500 ms to inactivate the Na channels and facilitate inactivated state-dependent binding of the test compounds. The cell membranes were then stepped back to −120 mV for 10 ms to recover from inactivation into resting or closed state (channels with test compound bound to them will not recover from inactivation and will not open) before stepping to 0 mV for 50 ms (pulse 2) to measure Na channels that are available to open. Peak current was measured during the step to 0 mV at pulse 1 and 2 to measure tonic and state-dependent inhibition. Compound activities were assessed by dividing post current amplitude (at the end of each five (5) minute compound application) by the vehicle control amplitude and the mean calculated for each compound concentration. Tetracaine was used as a positive control and was tested concurrently with the test compounds. Current amplitudes in excess of 200 pA at the control stage were analyzed. The amplitude of the current was calculated by measuring the difference between the peak inward current on stepping to 0 mV (i.e. peak of the current) and remaining current at the end of the step. The current was assessed in vehicle control conditions and then at the end of each five (5) minute compound application.

[2] = molecular target: T2, human Nav1.5 (pulse 2, state-dependent inhibition) (Homo sapiens, UniProt Q14524); test: Two pulse assay protocol, Nav1.5; details: HEK293 cells stably expressing human Nav1.5, pH 7.3, peak current, pulse 2 (state-dependent), read-out: percent inhibition hNav1.5, Pulse 2 (5 uM)
T2 construct: host or cells: HEK293
Description: as §1, §2

human Nav1.7 = molecular target: T3, human Nav1.7 (Homo sapiens, UniProt Q15858); test: Two pulse assay protocol, Nav1.7; details: peak current
T3 construct: host or cells: HEK293
Description: as §1, §2

human Nav1.8 = molecular target: T4, human Nav1.8 (Homo sapiens, UniProt Q9Y5Y9); test: Two pulse assay protocol, Nav1.8; details: peak current
T4 construct: host or cells: HEK293
T4 sequence (Q9Y5Y9 whole entry): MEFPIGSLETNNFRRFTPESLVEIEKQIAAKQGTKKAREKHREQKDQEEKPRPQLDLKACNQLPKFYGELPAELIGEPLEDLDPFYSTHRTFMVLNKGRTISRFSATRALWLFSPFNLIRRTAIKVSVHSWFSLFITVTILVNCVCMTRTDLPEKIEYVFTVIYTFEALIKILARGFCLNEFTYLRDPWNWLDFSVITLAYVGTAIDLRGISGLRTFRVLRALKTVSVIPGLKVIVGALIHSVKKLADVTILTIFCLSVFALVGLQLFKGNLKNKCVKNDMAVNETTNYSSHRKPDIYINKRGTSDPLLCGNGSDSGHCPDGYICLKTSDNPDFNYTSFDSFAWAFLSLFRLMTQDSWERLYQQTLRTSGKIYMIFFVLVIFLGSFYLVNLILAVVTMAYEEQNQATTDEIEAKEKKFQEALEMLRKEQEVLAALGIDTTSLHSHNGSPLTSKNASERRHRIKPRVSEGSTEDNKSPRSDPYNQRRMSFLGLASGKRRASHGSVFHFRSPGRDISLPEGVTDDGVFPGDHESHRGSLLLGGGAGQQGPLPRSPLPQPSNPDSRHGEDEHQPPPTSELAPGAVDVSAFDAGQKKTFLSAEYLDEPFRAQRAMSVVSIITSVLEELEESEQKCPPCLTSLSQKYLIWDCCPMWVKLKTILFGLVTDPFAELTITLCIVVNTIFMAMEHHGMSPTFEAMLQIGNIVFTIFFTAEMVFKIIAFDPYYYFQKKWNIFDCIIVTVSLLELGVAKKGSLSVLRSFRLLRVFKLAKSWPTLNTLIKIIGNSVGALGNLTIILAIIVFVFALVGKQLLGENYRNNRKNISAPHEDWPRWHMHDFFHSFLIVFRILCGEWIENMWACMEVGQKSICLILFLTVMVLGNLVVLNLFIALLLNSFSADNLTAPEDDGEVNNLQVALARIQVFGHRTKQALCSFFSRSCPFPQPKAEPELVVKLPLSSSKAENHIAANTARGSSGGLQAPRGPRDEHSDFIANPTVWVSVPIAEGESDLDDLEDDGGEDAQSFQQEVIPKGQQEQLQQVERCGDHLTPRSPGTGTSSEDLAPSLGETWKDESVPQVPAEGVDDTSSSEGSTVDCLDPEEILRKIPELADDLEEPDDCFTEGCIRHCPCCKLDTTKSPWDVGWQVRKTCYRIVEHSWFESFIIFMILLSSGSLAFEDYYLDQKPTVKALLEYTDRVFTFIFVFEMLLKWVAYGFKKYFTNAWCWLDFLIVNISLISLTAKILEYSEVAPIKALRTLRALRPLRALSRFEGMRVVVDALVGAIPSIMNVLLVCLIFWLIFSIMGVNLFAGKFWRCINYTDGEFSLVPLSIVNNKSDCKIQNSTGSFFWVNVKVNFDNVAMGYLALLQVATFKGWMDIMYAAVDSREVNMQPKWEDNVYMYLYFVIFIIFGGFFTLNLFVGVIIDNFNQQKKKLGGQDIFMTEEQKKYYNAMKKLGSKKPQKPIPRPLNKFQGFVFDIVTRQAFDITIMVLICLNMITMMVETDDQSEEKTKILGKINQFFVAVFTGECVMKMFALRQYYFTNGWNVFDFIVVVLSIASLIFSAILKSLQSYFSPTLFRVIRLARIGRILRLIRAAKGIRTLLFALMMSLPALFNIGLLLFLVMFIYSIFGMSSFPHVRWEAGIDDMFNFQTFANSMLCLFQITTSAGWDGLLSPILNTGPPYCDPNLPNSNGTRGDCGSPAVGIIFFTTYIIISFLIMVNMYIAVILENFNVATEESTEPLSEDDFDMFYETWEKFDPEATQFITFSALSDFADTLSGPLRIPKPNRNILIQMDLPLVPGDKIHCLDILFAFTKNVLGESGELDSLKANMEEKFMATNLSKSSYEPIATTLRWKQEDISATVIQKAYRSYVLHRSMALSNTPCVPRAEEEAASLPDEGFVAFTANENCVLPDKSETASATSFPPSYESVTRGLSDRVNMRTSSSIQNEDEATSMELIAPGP
Description: as §1, §2

[3] = molecular target: T5, human Nav1.5 (late current) (Homo sapiens, UniProt Q14524); test: Nav1.5 Late Current Assay (QPatch HT whole-cell patch clamp, 30 nM ATX-II); details: HEK293 cells stably expressing human Nav1.5, pH 7.3, late current with 30 nM ATX-II, read-out: percent inhibition hNav1.5 Late (5 uM)
T5 construct: host or cells: HEK293
Description: as §1
Onset and steady state induction of late Nav1.5 current was measured using a pulse pattern, repeated every 5 sec, consisting of a hyperpolarizing pulse to −120 mV for a 200 ms duration, depolarization to −15 mV amplitude for a 40 ms duration, followed by step to 40 mV for 200 ms and finally a 100 ms ramp (1.2 V/s) to a holding potential of −80 mV. Each concentration of compound was applied for 5 minutes. The assay was performed at room temperature. After establishing vehicle control condition, all further addition of external solutions contain 30 nM ATX-II to activate late currents. Each concentration of compound was also co-applied with 30 nM ATXII to estimate the Nav1.5 late current inhibition. […]. ATXII was used as the agonist positive control and was tested concurrently with the test compound. Ranolazine was used as the positive control and was tested concurrently with the test compound.
Nav1.5 late current was measured as the total charge flowing through the Nav1.5 channels (area under the curve) 5 ms after the Nav1.5 peak current till the end of the test pulse and as charge at their maxima during the ramp. Individual cell results were normalized to their respective vehicle control and the results were averaged. The sodium current was assessed in 30 nM ATXII as vehicle control conditions and then at the end of each five (5) minute compound application in the presence of 30 nM ATXII. Individual cell result was normalized to 30 nM ATXII vehicle control amplitude and the mean±SEM calculated for each compound concentration.

human Nav1.6 = molecular target: T6, human Nav1.6 (Homo sapiens, UniProt Q9UQD0); test: Two pulse assay protocol, Nav1.6; details: peak current
T6 construct: host or cells: HEK293
T6 sequence (Q9UQD0 whole entry): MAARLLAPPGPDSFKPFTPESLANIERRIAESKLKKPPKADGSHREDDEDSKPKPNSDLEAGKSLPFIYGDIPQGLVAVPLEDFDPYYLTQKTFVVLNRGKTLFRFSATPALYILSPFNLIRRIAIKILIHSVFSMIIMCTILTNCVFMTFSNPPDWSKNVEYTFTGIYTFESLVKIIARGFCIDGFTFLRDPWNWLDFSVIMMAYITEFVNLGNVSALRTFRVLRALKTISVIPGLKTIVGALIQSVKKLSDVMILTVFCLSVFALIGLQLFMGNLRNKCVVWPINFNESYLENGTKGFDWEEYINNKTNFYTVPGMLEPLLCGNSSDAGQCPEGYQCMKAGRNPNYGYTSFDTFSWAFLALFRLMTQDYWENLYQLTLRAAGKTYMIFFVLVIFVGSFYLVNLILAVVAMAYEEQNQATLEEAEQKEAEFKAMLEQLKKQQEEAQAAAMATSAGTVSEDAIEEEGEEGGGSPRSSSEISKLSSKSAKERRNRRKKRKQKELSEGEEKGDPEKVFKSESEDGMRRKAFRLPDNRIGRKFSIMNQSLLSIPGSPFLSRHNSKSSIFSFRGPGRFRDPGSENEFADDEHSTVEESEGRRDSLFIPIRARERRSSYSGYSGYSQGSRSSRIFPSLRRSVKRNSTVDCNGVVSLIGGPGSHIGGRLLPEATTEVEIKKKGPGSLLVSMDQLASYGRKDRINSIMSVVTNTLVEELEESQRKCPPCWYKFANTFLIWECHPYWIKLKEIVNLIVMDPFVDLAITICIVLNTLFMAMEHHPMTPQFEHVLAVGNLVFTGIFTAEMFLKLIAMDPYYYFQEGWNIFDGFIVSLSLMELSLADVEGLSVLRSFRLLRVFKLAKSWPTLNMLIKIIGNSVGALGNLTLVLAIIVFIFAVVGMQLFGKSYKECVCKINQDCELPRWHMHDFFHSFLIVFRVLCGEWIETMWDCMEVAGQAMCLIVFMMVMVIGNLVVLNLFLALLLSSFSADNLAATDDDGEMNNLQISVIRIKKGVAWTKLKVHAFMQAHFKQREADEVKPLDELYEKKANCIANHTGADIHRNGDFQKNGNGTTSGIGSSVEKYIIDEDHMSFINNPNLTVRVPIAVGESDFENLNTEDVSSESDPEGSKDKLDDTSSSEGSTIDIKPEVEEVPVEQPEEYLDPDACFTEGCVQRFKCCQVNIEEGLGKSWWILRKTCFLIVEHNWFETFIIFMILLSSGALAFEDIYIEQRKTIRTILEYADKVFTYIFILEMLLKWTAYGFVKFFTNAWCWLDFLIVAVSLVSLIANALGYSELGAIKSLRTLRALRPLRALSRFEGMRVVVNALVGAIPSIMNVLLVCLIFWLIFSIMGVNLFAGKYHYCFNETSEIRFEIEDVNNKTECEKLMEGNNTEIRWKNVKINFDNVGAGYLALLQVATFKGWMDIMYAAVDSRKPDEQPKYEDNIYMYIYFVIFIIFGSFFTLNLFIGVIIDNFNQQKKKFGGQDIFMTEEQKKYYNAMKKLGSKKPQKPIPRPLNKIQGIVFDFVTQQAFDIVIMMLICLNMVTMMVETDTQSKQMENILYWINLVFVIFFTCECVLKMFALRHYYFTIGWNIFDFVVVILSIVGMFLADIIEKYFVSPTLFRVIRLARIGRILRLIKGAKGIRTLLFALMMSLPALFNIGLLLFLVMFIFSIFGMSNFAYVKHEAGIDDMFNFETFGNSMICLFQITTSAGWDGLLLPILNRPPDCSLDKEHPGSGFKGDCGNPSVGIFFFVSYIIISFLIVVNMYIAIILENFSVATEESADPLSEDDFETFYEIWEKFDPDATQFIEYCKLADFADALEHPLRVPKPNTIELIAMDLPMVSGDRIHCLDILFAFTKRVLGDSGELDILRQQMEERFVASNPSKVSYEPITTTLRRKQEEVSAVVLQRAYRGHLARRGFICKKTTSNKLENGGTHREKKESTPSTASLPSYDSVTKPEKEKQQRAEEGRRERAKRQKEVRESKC
Description: as §1, §2

[4] = pulse 1 (tonic), read-out: percent inhibition hNav1.7, Pulse 1 (5 uM)
[5] = pulse 2 (state-dependent), read-out: percent inhibition hNav1.7, Pulse 2 (5 uM)
[6] = pulse 1 (tonic), read-out: percent inhibition hNav1.8, Pulse 1 (5 uM)
[7] = pulse 2 (state-dependent), read-out: percent inhibition hNav1.8, Pulse 2 (5 uM)
[8] = pulse 1 (tonic), read-out: percent inhibition hNav1.6, Pulse 1 (5 uM)
[9] = pulse 2 (state-dependent), read-out: percent inhibition hNav1.6, Pulse 2 (5 uM)

SMILES | inhibition at 5 min, 5 µM [1] [%] | inhibition at 5 min, 5 µM [2] [%] | inhibition at 5 µM (human Nav1.7; [4]) [%] | inhibition at 5 µM (human Nav1.7; [5]) [%] | inhibition at 5 min, 5 uM [3] [%] | inhibition at 5 µM (human Nav1.6; [8]) [%] | inhibition at 5 µM (human Nav1.6; [9]) [%] | also measured
CS(=O)(=O)NC(=O)c1cc2ncc(-c3ccc(OC(F)(F)F)cc3)n2cc1-c1ccc(OC(F)(F)F)cc1 [Example C67, N-(methylsulfonyl)-3,6-bis(4-(trifluoromethoxy)phenyl)imidazo[1,2-a]pyridine-7-carboxamide] | < 50 | < 50 | < 50 | < 50 | – | – | – | inhibition at 5 µM (human Nav1.8; [6]): < 50%; inhibition at 5 µM (human Nav1.8; [7]): < 50%
CC(C)Oc1ccc(-c2cnc3ccc(-c4ccc(OC(F)F)cc4)cn23)cc1 [Example C4, 6-[4-(difluoromethoxy)phenyl]-3-[4-(propan-2-yloxy)phenyl]imidazo[1,2-a]pyridine] | – | – | – | – | > 90 | – | – | –
Cc1cc(-c2cnc3ccc(-c4ccc(OC(C)C)cc4)cn23)cnc1OC(C)C [Example C71, 3-(6-isopropoxy-5-methylpyridin-3-yl)-6-(4-isopropoxyphenyl)imidazo[1,2-a]pyridine] | < 50 | > 90 | < 50 | > 90 | – | < 50 | > 90 | –
CC(C)Oc1ccc(-c2cnc3ccc(-c4cnn(C5CC5)c4)cn23)cc1 [Example C17, 1-cyclopropyl-4-{3-[4-(propan-2-yloxy)phenyl]imidazo[1,2-a]pyridin-6-yl}-1H-pyrazole] | – | – | – | – | < 50 | – | – | –
CC(C)Oc1ccc(-c2cnc3ccc(-c4ccc(C(N)=O)cc4)cn23)cc1 [Example C16, 4-{3-[4-(propan-2-yloxy)phenyl]imidazo[1,2-a]pyridin-6-yl}benzamide] | – | – | – | – | < 50 | – | – | –
COc1cc(OC)cc(-c2ccc3ncc(-c4ccc(OC(F)(F)F)cc4)n3c2)c1 [Example C58, 6-(3,5-dimethoxyphenyl)-3-(4-(trifluoromethoxy)phenyl)imidazo[1,2-a]pyridine] | – | – | – | – | – | – | – | inhibition at 2.5 µM (human Nav1.6; pulse 1 (tonic), read-out: percent inhibition hNav1.6, Pulse 1 (2.5 uM)): < 50%; inhibition at 2.5 µM (human Nav1.6; pulse 2 (state-dependent), read-out: percent inhibition hNav1.6, Pulse 2 (2.5 uM)): > 90%; inhibition at 5 µM (human Nav1.8; [6]): 50 to 90%; inhibition at 5 µM (human Nav1.8; [7]): 50 to 90%
CC(C)Oc1ccc(-c2cn3c(-c4ccc(OC(C)C)cc4)cnc3cc2C#N)cc1 [Example C52, 3,6-bis(4-isopropoxyphenyl)imidazo[1,2-a]pyridine-7-carbonitrile] | – | – | – | – | < 50 | – | – | –
CC(C)Oc1ccc(-c2cnc3ccc(-c4ccc(C5(N)CC5)cc4)cn23)cc1 [Example C15, 1-(4-{3-[4-(propan-2-yloxy)phenyl]imidazo[1,2-a]pyridin-6-yl}phenyl)cyclopropan-1-amine] | – | – | – | – | < 50 | – | – | –
CC(C)Oc1ccc(-c2ccc3ncc(-c4ccc(OC(C)(C)C)nc4)n3c2)cc1 [Example C90, 3-(6-(tert-butoxy)pyridin-3-yl)-6-(4-isopropoxyphenyl)imidazo[1,2-a]pyridine] | < 50 | > 90 | < 50 | > 90 | – | < 50 | > 90 | –
CC(C)Oc1ccc(-c2cnc3ccc(-c4ccc(OC(C)C)c(F)c4)cn23)cc1 [Example C24, 6-[3-fluoro-4-(propan-2-yloxy)phenyl]-3-[4-(propan-2-yloxy)phenyl]imidazo[1,2-a]pyridine] | < 50 | > 90 | < 50 | 50 to 90 | – | < 50 | > 90 | –
CC(C)Oc1ccc(-c2cnc3ccc(C(F)(F)F)cn23)cc1 [Example C61, 3-(4-isopropoxyphenyl)-6-(trifluoromethyl)imidazo[1,2-a]pyridine] | – | – | – | – | – | < 50 | < 50 | inhibition at 5 µM (human Nav1.8; [6]): < 50%; inhibition at 5 µM (human Nav1.8; [7]): < 50%
COc1cc2ncc(-c3ccc(OC(C)C)cc3)n2cc1-c1ccc(OC(C)C)cc1 [Example C49, 7-methoxy-3,6-bis[4-(propan-2-yloxy)phenyl]imidazo[1,2-a]pyridine] | – | – | – | – | < 50 | – | – | –
CC(C)Oc1ccc(-c2ccc3ncc(-c4cccc(OC(C)C)c4)n3c2)cc1 [Example C35, 3-[3-(propan-2-yloxy)phenyl]-6-[4-(propan-2-yloxy)phenyl]imidazo[1,2-a]pyridine] | – | – | – | – | > 90 | – | – | –
Cc1cc2ncc(-c3ccc(C(C)(C)O)cc3)n2cc1-c1ccc(OC(C)C)cc1 [Example C56, 2-(4-(6-(4-isopropoxyphenyl)-7-methylimidazo[1,2-a]pyridin-3-yl)phenyl)propan-2-ol] | – | – | – | – | < 50 | – | – | –
CC(C)Oc1ccc(-c2ccc3ncc(-c4ccc(OC(F)F)cc4)n3c2)cc1 [Example C40, 3-[4-(difluoromethoxy)phenyl]-6-[4-(propan-2-yloxy)phenyl]imidazo[1,2a]pyridine] | – | – | – | – | < 50 | – | – | –
CC(C)Oc1ccc(-c2ccc3ncc(-c4ccc(C(C)(C)C)nc4)n3c2)cc1 [Example C89, 3-(6-(tert-butyl)pyridin-3-yl)-6-(4-isopropoxyphenyl)imidazo[1,2-a]pyridine] | < 50 | 50 to 90 | < 50 | > 90 | – | < 50 | > 90 | –
CC(C)Oc1ccc(-c2ccc3ncc(-c4ccc(C(C)(C)C)cc4)n3c2)cc1 [Example C87, 3-(4-(tert-butyl)phenyl)-6-(4-isopropoxyphenyl)imidazo[1,2-a]pyridine] | < 50 | > 90 | < 50 | > 90 | – | < 50 | > 90 | –

Reference: patent publication US20230303569A1, “HETEROCYCLIC COMPOUNDS AS THERAPEUTIC AGENTS” (Arisan Therapeutics Inc., priority 2021, published 2023)
